# Target: T1, BSA-NSP-DMAE (Bos taurus, UniProt P02769)
# T1 construct: NSP-DMAE acridinium ester (chemical label attached through an amine-reactive NHS ester, about 1.4 per molecule)
# Assay: Zwitterion label incorporation into acridinium ester labeled BSA, measured by MALDI-TOF mass spectroscopy
# Parameters: species or system bovine
# Experimental: The zwitterion-containing compounds of the present invention may also be useful for lowering the non-specific binding of hydrophobic and ‘sticky’ proteins. In one experiment, the chemical competency of certain exemplary amine-reactive zwitterion-containing compounds shown in FIG. 1 were evaluated by treating an acridinium ester (e.g., 2′,6′-Dimethyl-4′-(N-succinimidyloxycarbonyl)phenyl 10-Methyl-9-acridinecarboxylate Methylsulfate (NSP-DMAE) or other suitable acridinium esters described by Law et al. in U.S. Pat. No. 5,656,426, which is incorporated herein by reference) labeled bovine serum albumin (BSA) or bovine gamma globulin (BGG) with 10 and 20 equivalents of the zwitterion-containing compound followed by measurement of the zwitterion-containing compound incorporation by mass spectroscopy. The detailed experimental protocol is described in Example 15.
# A solution of BSA (4 mg, 60 nmoles) in 1 mL of 0.1 M sodium bicarbonate was treated with 5 equivalents of 2′,6′-Dimethyl-4′-(N-succinimidyloxycarboxnyl)phenyl 10-(3′-Sulfopropyl)-acridinium-9-carboxylate (NSP-DMAE-NHS) added as a solution in DMF (72 μL of a 2 mg/mL solution in DMF). The reaction was stirred at room temperature for 4 hours. The reaction was then transferred to a 4 mL amicon filter (MW 30,000 cutoff) and diluted with 3 mL de-ionized water. The filter was centrifuged at 4000G for 8 minutes to reduce the volume to about 0.25 mL. The final conjugate was diluted to 0.8 mL with de-ionized water to give a 5 mg/mL solution. Acridinium ester label incorporation, measured by MALDI-TOF mass spectroscopy using sinnapinic acid as matrix indicated the incorporation of 1.4 labels.
# Further labeling of the acridinium ester-labeled BSA conjugate with the zwitterion labels 1d, 2c, 3c and 4c was carried out as follows. The conjugate (0.5 mg, 7.5 nmoles, 100 μL) was diluted with 100 μL of sodium carbonate, pH 9. To this conjugate, in four separate reactions, was added 10 equivalents of the four zwitterion labels 1d, 2c, 3c and 4c dissolved in DMSO corresponding to 12.8 μL of a 2.5 mg/mL solution of 1d; 16.5 μL of a 2 mg/mL solution of 2c; 16.5 μL of a 2 mg/mL solution of 3c and 14 μL of a 2.5 mg/mL solution of 4c. The reactions were stirred at room temperature for 4 hours and were then processed as described above.
# of Zwitterion-Containing Compounds Incorporated by Conjugate (input 10 equivalents),# of Zwitterion-Containing Compounds Incorporated by Conjugate (input 20 equivalents),SMILES
# T1 sequence (P02769 25-607): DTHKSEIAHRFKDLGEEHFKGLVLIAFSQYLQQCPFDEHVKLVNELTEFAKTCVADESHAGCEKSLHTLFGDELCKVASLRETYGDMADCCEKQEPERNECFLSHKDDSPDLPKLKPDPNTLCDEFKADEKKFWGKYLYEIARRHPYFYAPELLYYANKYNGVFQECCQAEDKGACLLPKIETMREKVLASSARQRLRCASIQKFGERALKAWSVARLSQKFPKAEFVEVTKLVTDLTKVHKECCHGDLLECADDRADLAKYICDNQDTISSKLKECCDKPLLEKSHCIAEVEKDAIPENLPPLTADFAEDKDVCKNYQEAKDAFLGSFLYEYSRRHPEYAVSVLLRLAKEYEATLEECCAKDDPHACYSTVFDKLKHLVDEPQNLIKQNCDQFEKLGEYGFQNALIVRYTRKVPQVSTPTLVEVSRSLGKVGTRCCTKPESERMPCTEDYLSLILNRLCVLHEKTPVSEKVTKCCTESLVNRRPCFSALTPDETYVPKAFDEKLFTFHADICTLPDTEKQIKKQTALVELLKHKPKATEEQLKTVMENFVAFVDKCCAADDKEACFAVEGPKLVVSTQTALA
5,–,C[N+](C)(CCCC(=O)Oc1c(F)c(F)c(F)c(F)c1F)CCS(=O)(=O)[O-] [Compound 1d]
5,8,C[N+](C)(CCCC(=O)Oc1c(F)c(F)c(F)c(F)c1F)CCCS(=O)(=O)[O-] [Compound 2c]
3.3,–,C[N+](C)(CCCCS(=O)(=O)[O-])CCCC(=O)Oc1c(F)c(F)c(F)c(F)c1F [Compound 3c]
3.4,7.1,CCCOP(=O)([O-])OCC[N+](C)(C)CCCC(=O)Oc1c(F)c(F)c(F)c(F)c1F [Compound 4c]

# From patent publication US10710962B2, “Zwitterionic reagents” (Siemens Healthcare Diagnostics Inc., priority 2010, dated 2020)
